Source: patent publication US5204311A, “Ethanediimidic acid bis[(arylalkylidene)hydrazide] color-formers” (Minnesota Mining and Manufacturing Company, priority 1991, dated 1993)

Experiments:
Assay type in all cases: physicochemical
[1] = Color (Hunter coordinates) of Ni complex, swabbed on Ni-coated receptor (CF) sheet; set-up: key to Hunter coordinate a / Hunter Coordinates a: Hunter a: +a red, -a green; key to Hunter coordinate b / Hunter Coordinates b: Hunter b: +b yellow, -b blue
Protocol: In general, the colors of the complexes, as listed in Table 2 and Experiments 4, 6, and 7 below, were determined by preparing a 1% solution of the color-former or mixture of color-formers in an appropriate solvent. Unless otherwise indicated, the solvent was composed of a mixture of tributyl phosphate (26.5%), diethyl phthalate (17.6%), and cyclohexane (55.9%). The images were formed by applying two stripes of the solution to a substrate coated with a Ni^2+ coated receptor sheet using a cotton tipped applicator swab. Rapid and complete development of the image was achieved by passing the sheet through a hot shoe adjusted to 102° C., making a revolution every 10 seconds. The visually observed colors were measured and recorded.
One method of color measurement is to determine the color's position in color space. One color space system is the Hunter System; see F. W. Billmeyer, Jr., and M. Saltzman, Principles of Color Technology; John Wiley & Sons; New York, N.Y.; Ch. 2 & 3, 1981. In this system three mutually perpendicular axes (L, a, and b) are needed to define a color. "L" (+z axis) represents the lightness or darkness of the image; "a" (x axis) represents the amount of red or green (+a is red, -a is green); and "b" (y axis) represents the amount of yellow or blue (+b is yellow, -b is blue). By measuring a material's L, a, and b values, the color of one sample can be compared with that of other samples. Another value used in the Hunter System is Chroma (C). Chroma is defined by the equation [C=(a^2 +b^2)^1/2 ] and represents the distance of the image coordinates from the origin. The greater the Chroma, the more intense the image. Chroma is used to compare images cf the same hue. Because the color of a sample is also dependent upon the color temperature of the illuminating source, the angle at which the sample is illuminated, the angle at which the illumination is reflected, and the angle of the retina illuminated, these all need to be specified. Many instruments have been developed to record these values. One such instrument is the HunterLab LabScan II. This instrument is capable of automatically determining the L, a, and b values for a given sample, and was used for the following examples.
The L, a, and b color coordinates of the more uniform stripe were measured for 45°/0° reflectance on a HunterLab LabScan II, secondary observer, using illuminant C. The observed (image) color and the Hunter coordinates for Ni^2+ complexes of the yellow color-formers of this invention are given in Table 2.
A 1% solution of the condensation product in the encapsulation fill mix was swabbed onto a carbonless paper CF sheet (sold by the 3M Co. St. Paul, Minn.) with a cotton swab. The reflectance spectra had Hunter coordinates of: […]

[2] = Solubility in capsule fill solvents
Protocol: The encapsulation process requires the color-forming ligand be dissolved in a solvent or mixed solvents, because of the nature of the procedure. Formation of a microcapsule shell as by condensation of urea or melamine with an aldehyde such as formaldehyde or mixtures of aldehydes to form the capsule shell is carried out in an acidic aqueous medium and the color-former solution must be insoluble and unreactive to these reagents for the encapsulation to proceed. Solvents commonly used include tributyl phosphate, diethyl phthalate, and cyclohexane. […] As mentioned above, solubility of yellow color-formers exemplified by structure I in nonaqueous solvents such as those used in the encapsulation process may be increased by substituting alkyl, aryl, aralkyl, alkenyl, or such groups for the hydrogens on the various positions available in the structure I above.
This color observed on the CF sheet was yellow. […] Solubility in a solvent blend of tributyl phosphate, diethyl phthalate and cyclohexane (capsule solvents for preparing carbonless copy-paper) was >9% by weight. Thus the ligand is eminently suitable for encapsulation. The ligand is not volatile at 71 ° C. overnight.
Solubility in a solvent blend of tributyl phosphate, diethyl phthalate and cyclohexane (capsule solvents for preparing carbonless copy-paper) was 3% by weight. Thus the ligand is eminently suitable for encapsulation. The ligand is not volatile at 71 ° C. overnight.
*THE SOLUBILITY WAS DEEMED PREFERABLE IF IT WAS GREATER THAN 2% IN THE
FILL MIX AT ROOM TEMPERATURE FOR 3 DAYS. THE FILL MIX COMPRISED
TRIBUTYLPHOSPHATE (26.5%); DIETHYLPHTHALATE (17.6%); AND CYCLOHEXANE

[3] = Volatility: transfer from simulated donor sheet to receptor sheet; settings: 71 ° C. overnight
Description: The method utilized in the experiments to both define and evaluate the level of volatility was as follows. A single sheet piece of Grade #10 (20×12 cm) cheesecloth (AF & F., Item No. 588033, American Fiber and Finishing, Inc., Burlington, Mass.) was placed between a simulated donor sheet and a receptor sheet of a carbonless paper construction. The simulated donor sheet comprised a sheet of paper saturated with color-former of structure I, which was used to simulate a CB sheet with ruptured capsules. Pressure was then applied for 24 hours by placing 9 pounds of paper on top of the sheets, to simulate storage conditions of the paper packages. The formation of color on the receptor sheet, due to transfer of volatile color-former thereto, was used as an indication that the particular color-former was less than optimally desirable for carbonless paper constructions, i.e., was volatile. A compound was considered generally to be nonvolatile, within the meaning of the term as used herein to define the present invention and thus to define color-formers most acceptable for use in carbonless image transfer arrangements, if no color was formed after the simulated test was run for about 24 hours at 25° C. In some instances, if no color was formed after storage at room temperature (25° C.), successively higher temperatures were used, as for example 49° C., 60° C., and 71° C. […]

[4] = 1% solution in encapsulation fill mix swabbed onto 3M CF sheet (Experiments 2, 3)
[5] = Ni(II) complex, swab concn. 1%, 45°/0° reflectance, illuminant C (Table 2)

- Hunter coordinate L [1, 4]: 79.8
- Hunter coordinate a [1, 4]: -2.1
- Hunter coordinate b [1, 4]: 39.3
- color observed on the CF sheet ([1]; 1% solution swabbed (Experiments 2, 3)): yellow
- Chroma ([1]; C=(a^2 +b^2)^1/2, Ni(II) complex, swab concn. 1% (Table 2)): 39.3
- Image Color ([1]; Ni(II) complex, swab concn. 1% (Table 2)): Yellow
- Hunter Coordinates L [1, 5]: 79.8
- Hunter Coordinates a [1, 5]: -2.1
- Hunter Coordinates b [1, 5]: 39.3
- Solubility in a solvent blend of tributyl phosphate, diethyl phthalate and cyclohexane [2]: > 9 % by weight
- solubility in encapsulation / capsule solvents (in words) [2]: very soluble in encapsulation solvents
- Dye Solubility ([2]; 4320 min): > 9.0%
- volatility [3]: not volatile
SMILES: CC(C)(C)c1cc(C=NN=C(N)C(N)=NN=Cc2cc(C(C)(C)C)cc(C(C)(C)C)c2O)c(O)c(C(C)(C)C)c1 [Compound 1, ethanediimidic acid bis[(3,5-di-t-butylsalicylidene)hydrazide]]
